# According to US7407914B2, “Herbicide composition” (Sumitomo Chemical Company, Limited, priority 2001, dated 2008):
# System: broadleaf signalgrass
# Assay: Foliar spray herbicide effect test in greenhouse pots (Test Example 1)
# Assay type: in vivo, Brachiaria platyphylla
# Conditions: evaluated 5 days after treatment, level 0-10
# Procedure: Evaluation of phytotoxicity against a crop was shown by “no” when almost no phytotoxicity was observed, “low” when a low level phytotoxicity was observed, “medium” when a medium level phytotoxicity was observed and “high” when a high level phytotoxicity was observed.
# A plastic pot of 11 cm in diameter and 8 cm in depth was filled with field soil. A seed of broadleaf signalgrass was sown and grown in a greenhouse for 28 days.
# An emulsion of Compound A-1 was prepared by sufficiently mixing […] of Compound A-1, 6 parts of Sorpol 3005× (surfactant, produced by Toho Chemical) and 89 parts of xylene.
# Each of • single use of an emulsion of Compound A-1, • single use of a formulation of Flumioxazin (commercial name: Pledge, produced by Sumitomo Chemical, containing 50% of Flumioxazin), • single use of a formulation of Sulfentrazone (commercial name: Authority, produced by Du Pont, containing 75% of Sulfentrazone), • a mixed composition of an emulsion of Compound A-1 and a formulation of Flumioxazin, and • a mixed composition of an emulsion of Compound A-1 and a solution of Sulfentrazone • were diluted with water containing 1% Agri-dex (produced by Helena). […]
# After the treatment, they were raised in a greenhouse for 5 days and the effect against weeds was evaluated. In addition, after 14 days of the treatment, the phytotoxicity to soybean was evaluated.
smiles,measurement,setting,value
"Cc1nn(-c2cc(NS(C)(=O)=O)c(Cl)cc2Cl)c(=O)n1C(F)F [Sulfentrazone, N-[2,4-dichloro-5-[4-(difluoromethyl)-4,5-dihydro-3-methyl-5-oxo-1H-1,2,4-triazol-1-yl]phenyl]methanesulfonamide]",Herbicide Effect Broad signalgrass,200 g/ha active ingredient,1
same,Herbicide Effect Broad signalgrass,1200 g/ha active ingredient,3
